In US20240252488A1 (KOREA RESEARCH INSTITUTE OF CHEMICAL TECHNOLOGY, priority 2020, published 2024):

Key:
[1] = system: FADD−/− Jurkat cells; assay: Necroptosis inhibition assay, TNF-α-induced necroptosis (CellTiter-Glo 2.0); format: cell-based, human; settings: TNF-α 15 ng/mL; for Necroptosis inhibition assay (Rescue %) 1 μM: compound 1 μM; for Necroptosis inhibition assay (Rescue %) 10 μM: compound 10 μM
Summary of the method: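 Cmpd 0.1/1/10 μM final, 30 min RT preincubation; TNF-α 15 ng/mL final; 20–24 h, 37° C, 5% CO2. Readout: ATP luminescence (reagent 1:3 in PBS), 0.5 s/well. Cytotoxicity and % necroptosis inhibition calculated from signal.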

[2] = biological target: T1, MLKL (Homo sapiens, UniProt Q8NB16); assay: MLKL degradation assay in HepG2 cell line (western blot); format: cell-based; design: endogenous in cells; host or cells: HepG2 or HaCaT; settings: cell line not given; for Degradation assay (Degradation %) 10 μM: compound 10 μM; for Degradation assay (Degradation %) 1 μM: compound 1 μM
T1 sequence (Q8NB16 1-471): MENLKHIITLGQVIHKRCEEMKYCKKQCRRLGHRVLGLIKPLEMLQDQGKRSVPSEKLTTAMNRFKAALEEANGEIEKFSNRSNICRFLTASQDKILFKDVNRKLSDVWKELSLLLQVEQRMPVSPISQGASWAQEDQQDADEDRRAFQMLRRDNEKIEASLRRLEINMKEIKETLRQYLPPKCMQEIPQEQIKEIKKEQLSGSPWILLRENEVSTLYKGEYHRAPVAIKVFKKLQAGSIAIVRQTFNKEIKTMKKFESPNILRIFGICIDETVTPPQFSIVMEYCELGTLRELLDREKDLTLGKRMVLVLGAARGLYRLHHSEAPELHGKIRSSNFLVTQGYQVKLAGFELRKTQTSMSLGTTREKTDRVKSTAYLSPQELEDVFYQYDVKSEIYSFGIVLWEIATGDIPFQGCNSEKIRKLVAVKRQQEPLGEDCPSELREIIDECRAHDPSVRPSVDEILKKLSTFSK
Summary of the method: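 HepG2, cpd final 1 or 10 μM, 20-24 h, 37 °C/5% CO2; RIPA lysis, BCA-normalized, 10-15 μg/lane SDS-PAGE, western blot, ECL read-out.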

[3] = biological target: T1, MLKL; assay: Measurement of binding affinity with MLKL receptor (competitive binding assay, Kd); design: made in house; host or cells: HEK 293 cell line (T7 phage in E. coli BL21-derived host is also described)
Summary of the method: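 qPCR of MLKL eluted from liganded beads served as the read-out, from which Kd was derived. The protein was made in HEK 293 cells with a DNA tag, and test compounds competed with the bead-bound ligand at 0.9% final DMSO.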

Degradation assay (Degradation %) 10 μM [2] [%]	Kd [3] [nM]	Degradation assay (Degradation %) 1 μM [2] [%]	Structure (SMILES)	Necroptosis inhibition assay (Rescue %) 1 μM [1] [%]	Necroptosis inhibition assay (Rescue %) 10 μM [1] [%]
12.14	5.4	–	Nc1ncc(-c2cnn([C@@H]3CCN(CCOCCOCCNC(=O)COc4cccc5c4C(=O)N(C4CCC(=O)NC4=O)C5=O)C3)c2)nc1C(=O)OC(C(=O)Nc1ccc(F)cc1)c1ccccc1 (stereo partly drawn) [TDH-269, 2-((4-fluorophenyl)amino)-2-oxo-1-phenylethyl 3-amino-6-(1-((3R)-1-(2-(2-(2-(2-((2-(2,6-dioxopiperidin-3-yl)-1,3-dioxoisoindolin-4-yl)oxy)acetamido)ethoxy)ethoxy)ethyl)pyrrolidin-3-yl)-1H-pyrazol-4-yl)pyrazine-2-carboxylate]	35.71	81.5
39.14	6.1	19.32	Nc1ncc(-c2cnn([C@@H]3CCN(CCOCCOCCNC(=O)COc4ccc5c(c4)C(=O)N(C4CCC(=O)NC4=O)C5=O)C3)c2)nc1C(=O)OC(C(=O)Nc1ccc(F)cc1)c1ccccc1 (stereo partly drawn) [TDH-270, 2-((4-fluorophenyl)amino)-2-oxo-1-phenylethyl 3-amino-6-(1-((3R)-1-(2-(2-(2-(2-((2-(2,6-dioxopiperidin-3-yl)-1,3-dioxoisoindolin-5-yl)oxy)acetamido)ethoxy)ethoxy)ethyl)pyrrolidin-3-yl)-1H-pyrazol-4-yl)pyrazine-2-carboxylate]	38.56	99.37
4.22	85	1.47	Nc1ncc(-c2cnn(C3CCN(CC4CCN(CC(=O)N5CC(Nc6cccc7c6C(=O)N(C6CCC(=O)NC6=O)C7=O)C5)CC4)CC3)c2)nc1C(=O)OC(C(=O)Nc1ccc(F)cc1)c1ccccc1 (stereo not drawn) [TDH-271, 2-((4-fluorophenyl)amino)-2-oxo-1-phenylethyl 3-amino-6-(1-(1-((1-(2-(3-((2-(2,6-dioxopiperidin-3-yl)-1,3-dioxoisoindolin-4-yl)amino)azetidin-1-yl)-2-oxoethyl)piperidin-4-yl)methyl)piperidin-4-yl)-1H-pyrazol-4-yl)pyrazine-2-carboxylate]	45.32	76.94
44.2	13	23.54	Nc1ncc(-c2cnn(C3CCN(CC4CCN(CC(=O)NC5CCN(c6ccc7c(c6)C(=O)N(C6CCC(=O)NC6=O)C7=O)CC5)CC4)CC3)c2)nc1C(=O)OC(C(=O)Nc1ccc(F)cc1)c1ccccc1 (stereo not drawn) [TDH-272, 2-((4-fluorophenyl)amino)-2-oxo-1-phenylethyl 3-amino-6-(1-(1-((1-(2-((1-(2-(2,6-dioxopiperidin-3-yl)-1,3-dioxoisoindolin-5-yl)piperidin-4-yl)amino)-2-oxoethyl)piperidin-4-yl)methyl)piperidin-4-yl)-1H-pyrazol-4-yl)pyrazine-2-carboxylate]	60.73	72.92
61.88	3.5	77.5	Nc1ncc(-c2cnn(C3CCN(C(=O)C4CCN(C(=O)C5CCN(c6cccc7c6C(=O)N(C6CCC(=O)NC6=O)C7=O)CC5)CC4)CC3)c2)nc1C(=O)OC(C(=O)Nc1ccc(F)cc1)c1ccccc1 (stereo not drawn) [TDH-273, 2-((4-fluorophenyl)amino)-2-oxo-1-phenylethyl 3-amino-6-(1-(1-(1-(1-(2-(2,6-dioxopiperidin-3-yl)-1,3-dioxoisoindolin-4-yl)piperidine-4-carbonyl)piperidine-4-carbonyl)piperidin-4-yl)-1H-pyrazol-4-yl)pyrazine-2-carboxylate]	54.02	34.08
38.77	5.2	56.81	Nc1ncc(-c2cnn(C3CCN(C(=O)C4CCN(C(=O)C5CCN(c6ccc7c(c6)C(=O)N(C6CCC(=O)NC6=O)C7=O)CC5)CC4)CC3)c2)nc1C(=O)OC(C(=O)Nc1ccc(F)cc1)c1ccccc1 (stereo not drawn) [TDH-274, 2-((4-fluorophenyl)amino)-2-oxo-1-phenylethyl 3-amino-6-(1-(1-(1-(1-(2-(2,6-dioxopiperidin-3-yl)-1,3-dioxoisoindolin-5-yl)piperidine-4-carbonyl)piperidine-4-carbonyl)piperidin-4-yl)-1H-pyrazol-4-yl)pyrazine-2-carboxylate]	77.01	57.62
63.11	4.9	57.84	Nc1ncc(-c2cnn(C3CCN(C(=O)C4CCN(C(=O)CNc5cccc6c5C(=O)N(C5CCC(=O)NC5=O)C6=O)CC4)CC3)c2)nc1C(=O)OC(C(=O)Nc1ccc(F)cc1)c1ccccc1 (stereo not drawn) [TDH-275, 2-((4-fluorophenyl)amino)-2-oxo-1-phenylethyl 3-amino-6-(1-(1-(1-((2-(2,6-dioxopiperidin-3-yl)-1,3-dioxoisoindolin-4-yl)glycyl)piperidine-4-carbonyl)piperidin-4-yl)-1H-pyrazol-4-yl)pyrazine-2-carboxylate]	69.59	69.98
75.61	3.6	78.62	Nc1ncc(-c2cnn(C3CCN(C(=O)C4CCN(C(=O)CNc5ccc6c(c5)C(=O)N(C5CCC(=O)NC5=O)C6=O)CC4)CC3)c2)nc1C(=O)OC(C(=O)Nc1ccc(F)cc1)c1ccccc1 (stereo not drawn) [TDH-276, 2-((4-fluorophenyl)amino)-2-oxo-1-phenylethyl 3-amino-6-(1-(1-(1-((2-(2,6-dioxopiperidin-3-yl)-1,3-dioxoisoindolin-5-yl)glycyl)piperidine-4-carbonyl)piperidin-4-yl)-1H-pyrazol-4-yl)pyrazine-2-carboxylate]	75.36	70.49
53.39	1.5	40.52	Nc1ncc(-c2cnn(C3CCN(C(=O)C4CCN(C(=O)COc5cccc6c5C(=O)N(C5CCC(=O)NC5=O)C6=O)CC4)CC3)c2)nc1C(=O)OC(C(=O)Nc1ccc(F)cc1)c1ccccc1 (stereo not drawn) [TDH-277, 2-((4-fluorophenyl)amino)-2-oxo-1-phenylethyl 3-amino-6-(1-(1-(1-(2-((2-(2,6-dioxopiperidin-3-yl)-1,3-dioxoisoindolin-4-yl)oxy)acetyl)piperidine-4-carbonyl)piperidin-4-yl)-1H-pyrazol-4-yl)pyrazine-2-carboxylate]	43.59	13.88
75.28	1.4	64.63	Nc1ncc(-c2cnn(C3CCN(C(=O)C4CCN(C(=O)COc5ccc6c(c5)C(=O)N(C5CCC(=O)NC5=O)C6=O)CC4)CC3)c2)nc1C(=O)OC(C(=O)Nc1ccc(F)cc1)c1ccccc1 (stereo not drawn) [TDH-278, 2-((4-fluorophenyl)amino)-2-oxo-1-phenylethyl 3-amino-6-(1-(1-(1-(2-((2-(2,6-dioxopiperidin-3-yl)-1,3-dioxoisoindolin-5-yl)oxy)acetyl)piperidine-4-carbonyl)piperidin-4-yl)-1H-pyrazol-4-yl)pyrazine-2-carboxylate]	63.64	39.23
15.86	5	38.42	Nc1ncc(-c2cnn(C3CCN(C(=O)C4CCN(c5cccc6c5C(=O)N(C5CCC(=O)NC5=O)C6=O)CC4)CC3)c2)nc1C(=O)OC(C(=O)Nc1ccc(F)cc1)c1ccccc1 (stereo not drawn) [TDH-279, 2-((4-fluorophenyl)amino)-2-oxo-1-phenylethyl 3-amino-6-(1-(1-(1-(2-(2,6-dioxopiperidin-3-yl)-1,3-dioxoisoindolin-4-yl)piperidine-4-carbonyl)piperidin-4-yl)-1H-pyrazol-4-yl)pyrazine-2-carboxylate]	24.78	44.14
